This note sets out measurements from US9260448B2, “Thienopyrimidinone derivatives as mGluR1 antagonists” (KOREA INSTITUTE OF SCIENCE AND TECHNOLOGY, priority 2013, dated 2016).

For this test, the target named is mGluR1 (Homo sapiens, UniProt Q13255). Nature of the test: mGluR1 activity screening using FDSS6000 (intracellular calcium, L-Glutamate stimulation). In kind it is cell-based. The conditions noted are these: Chem3 Cell Line (HTS145C:Millipore) stably expressing mGluR1, L-Glutamate 30 μM, Ca2+ fluorescent dye, read-out: IC50 (nM) against mGluR1. The protocol: mGluR1 Activity Screening Method Using FDSS6000
mGluR1, sequence (Q13255 19-1194): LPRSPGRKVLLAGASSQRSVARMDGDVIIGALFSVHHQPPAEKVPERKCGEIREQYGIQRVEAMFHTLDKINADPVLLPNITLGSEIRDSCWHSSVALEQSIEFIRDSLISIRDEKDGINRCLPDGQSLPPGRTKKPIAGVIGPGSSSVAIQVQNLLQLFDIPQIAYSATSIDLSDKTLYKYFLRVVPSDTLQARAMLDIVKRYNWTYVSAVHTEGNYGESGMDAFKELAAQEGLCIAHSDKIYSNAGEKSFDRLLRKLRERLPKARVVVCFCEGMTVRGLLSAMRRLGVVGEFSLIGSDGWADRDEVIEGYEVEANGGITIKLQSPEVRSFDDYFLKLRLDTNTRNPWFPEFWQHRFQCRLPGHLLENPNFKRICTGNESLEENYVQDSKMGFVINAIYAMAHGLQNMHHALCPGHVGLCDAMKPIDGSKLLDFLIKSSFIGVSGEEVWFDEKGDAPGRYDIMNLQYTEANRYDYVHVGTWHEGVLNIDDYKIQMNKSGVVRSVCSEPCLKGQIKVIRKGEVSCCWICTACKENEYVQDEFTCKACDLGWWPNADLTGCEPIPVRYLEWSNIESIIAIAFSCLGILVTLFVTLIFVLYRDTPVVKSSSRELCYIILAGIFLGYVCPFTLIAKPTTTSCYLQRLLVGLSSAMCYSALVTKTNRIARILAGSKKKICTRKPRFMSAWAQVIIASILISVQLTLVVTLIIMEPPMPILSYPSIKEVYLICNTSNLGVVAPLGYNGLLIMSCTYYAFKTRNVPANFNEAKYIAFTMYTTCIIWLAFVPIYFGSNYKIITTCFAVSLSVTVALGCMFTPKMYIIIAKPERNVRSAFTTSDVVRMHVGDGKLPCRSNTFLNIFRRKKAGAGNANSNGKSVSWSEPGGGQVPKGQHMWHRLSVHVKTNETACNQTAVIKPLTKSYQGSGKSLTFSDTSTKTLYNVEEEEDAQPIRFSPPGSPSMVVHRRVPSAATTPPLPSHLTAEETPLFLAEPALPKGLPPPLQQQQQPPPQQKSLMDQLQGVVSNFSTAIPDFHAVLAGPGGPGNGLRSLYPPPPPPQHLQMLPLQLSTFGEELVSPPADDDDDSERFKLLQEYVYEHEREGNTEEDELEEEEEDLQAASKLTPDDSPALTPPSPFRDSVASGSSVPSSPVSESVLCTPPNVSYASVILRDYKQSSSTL
Cells of Chem3 Cell Line (HTS145C:Millipore) in which mGluR1 was stably expressed were adjusted to a density of 2×10^6/ml. 50 μl of the cells were plated in each well of a 96-well plate, and stabilized at 5% CO2 and 37° C. for 1 hr. The cells were allowed to react with an HBSS buffer containing a Ca^2+ fluorescent dye (FLIPR Calcium 5 assay kit: Molecular Devices) under the conditions of 5% CO2 and 37° C. for 30 min. As a result of the reaction, the cells were labeled with the fluorescent dye. Separately from the 96-well plate containing the fluorescently labeled cells, another 96-well plate was prepared that contained L-Glutamate (final concentration=30 μM) activating mGluR1 and a blocking drug to be screened. Most cell-based HTS systems have liquid application systems necessary for drug injection but no liquid inhalation systems. For this reason, 25 μl of each of the blocking drug and L-Glutamate was prepared at a 6-fold higher concentration in an HBSS buffer and diluted 6-fold in the final volume […] of the cell plate before measurement. Specifically, after drug pretreatment for 75 sec following recording the reference value at 20 sec, a change in intracellular calcium concentration caused by L-glutamate administration was measured using FDSS6000. The inhibitory effect of the test substance was expressed as a percent (%) relative to the area of the 480 nm/520 nm ratio in a control group untreated with the test substance. 10 μM PCTC20001 was always used as the control drug.
For detailed imaging of calcium, the cells were selectively exposed to an excitation wavelength (480 nm) from four xenon light sources mounted in FDSS6000 through a computer-controlled filter wheel. Data were recorded at 1.23-sec intervals. Emitter fluorescence light entering through a 520 nm long-pass filter was allowed to pass through a cooled CCD camera mounted in the system. An average 480 nm/520 nm ratio was obtained in each well of the 96-well plate using a digital fluorescence analyzer. All imaging data were collected and analyzed with the help of a dedicated program for FDSS6000 (Hamamatsu Photonics).
Measurement of IC50 Values Against mGluR1
The IC50 values (nM) of the novel compounds of Formula 1 according to the present invention against mGluR1 are shown in Table 1.
As to `O=c1c2scc(-c3ccccc3)c2ncn1-c1ccccc1F` [Compound 2, 3-(2-Fluorophenyl)-7-phenylthieno[3,2-d]pyrimidin-4(3H)-one], the IC50 amounted to 407 nM. For `O=c1c2scc(-c3ccccc3)c2ncn1-c1cccc(Cl)c1` [Compound 6, 3-(3-Chlorophenyl)-7-phenylthieno[3,2-d]pyrimidin-4(3H)-one] the value was 58 nM; for `O=c1c2scc(-c3ccccc3)c2ncn1-c1ccc(Cl)cc1` [Compound 7, 3-(4-Chlorophenyl)-7-phenylthieno[3,2-d]pyrimidin-4(3H)-one], 66 nM. `Cc1ccc(-n2cnc3c(-c4ccccc4)csc3c2=O)cc1` [Compound 18, 7-Phenyl-3-p-tolylthieno[3,2-d]pyrimidin-4(3H)-one]: the IC50 was 112 nM. For `C=Cc1cccc(-n2cnc3c(-c4ccccc4)csc3c2=O)c1` [Compound 29, 7-Phenyl-3-(3-vinylphenyl)thieno[3,2-d]-pyrimidin-4(3H)-one] the value was 74 nM. On to `O=c1c2scc(-c3ccccc3F)c2ncn1-c1ccc(Cl)cc1` [Compound 32, 3-(4-Chlorophenyl)-7-(2-fluorophenyl)thieno[3,2-d]pyrimidin-4(3H)-one], for which the IC50 was found to be 30 nM. Under `Cc1ccc(-c2csc3c(=O)n(-c4ccc(Cl)cc4)cnc23)cc1` [Compound 58, 3-(4-Chlorophenyl)-7-(p-tolyl)thieno[3,2-d]pyrimidin-4(3H)-one] stands 80 nM; under `COc1ccc(-n2cnc3c(-c4ccc(C)cc4)csc3c2=O)cc1` [Compound 59, 3-(4-Methoxyphenyl)-7-(p-tolyl)thieno[3,2-d]pyrimidin-4(3H)-one], 661 nM. For `O=c1c2scc(-c3ccc4c(c3)OCO4)c2ncn1-c1ccc(Cl)cc1` [Compound 68, 7-(Benzo[d][1,3]dioxol-5-yl)-3-(4-chlorophenyl)thieno[3,2-d]pyrimidin-4(3H)-one] the value was 447 nM.

For `COc1ccc(-n2cnc3c(-c4ccc5c(c4)OCO5)csc3c2=O)cc1` [Compound 69, 7-(Benzo[d][1,3]dioxol-5-yl)-3-(4-methoxyphenyl)thieno[3,2-d]pyrimidin-4(3H)-one], the IC50 came to 1990 nM. For `COc1ccc(-n2c(C)nc3c(-c4ccccc4)csc3c2=O)cc1` [Compound 74, 3-(4-Methoxyphenyl)-2-methyl-7-phenylthieno[3,2-d]pyrimidin-4(3H)-one] the value was 564 nM.
